Test results taken from paper PMC6822579, “A novel benzoxazinone derivative YLT-LL-11 inhibits diffuse large B-cell lymphoma growth via inducing cell cycle arrest and apoptosis” (Bioscience Reports, 2019).

Biological target: T1, BRD4 (D1); BRD4 (BD1) (Homo sapiens, UniProt O60885)
T1 construct: first bromodomain (D1/BD1), purchased from Biogenie, Canada
Assay: AlphaScreen peptide displacement assay
Format: binding

IC50: 999 nM
Compound: CCC1Oc2cc(NS(=O)(=O)c3ccccc3OC)ccc2NC1=O (stereo not shown) [compound 5, N-(2-ethyl-3-oxo-3,4-dihydro-2H-benzo[b] [1, 4]oxazin-7-yl)-2-methoxybenzenesulfonamide]
